Experimental data published in patent US11013235B2 (priority 2015, dated 2021).
Read-outs that look alike come from different tables or passages of the source.

What was measured:
Assay type in all cases: in vivo
[1] = tested on: Candidatus 'Liberibacter asiaticus'; conditions: spraying every 15 days, 12 months after treatment, Citrus sinensis with HLB
Phytophthora parasitica = experiment: Control of Phytophthora parasitica disease in tobacco (Pp-Nt); conditions: 1 μM spraying every 24 hours for one week, water control 91
Rhizoctonia solani [2] = experiment: Control of Rhizoctonia solani disease in tobacco (Rs-Nt); conditions: 1 μM spraying every 24 hours for one week, water control 87
Nocardia sp = experiment: Control of Nocardia sp disease in tobacco (N-Nt); conditions: 1 μM spraying every 24 hours for one week, water control 58
In short: (§1)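 Treatment: spraying at 1 μM every 24 h for 1 week after pathogen inoculation, versus water. Scoring differed by pathogen: Botrytis by lesion diameter, Alternaria by fraction of leaves with symptoms, Nocardia by plant mortality.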

Rhizoctonia solani [3] = experiment: Control of Rhizoctonia solani disease in tomato (Rs-SI); conditions: 1 μM spraying every 24 hours for one week, water control 96
Alternaria solani = experiment: Control of Alternaria solani disease in tomato (As-SI); conditions: 1 μM spraying every 24 hours for one week, water control 68
In short: as §1

Botrytis cinerea [4] = experiment: Control of Botrytis cinerea disease in Arabidopsis (Bc-At); conditions: 1 μM spraying every 24 hours for one week, water control 8.7
In short: as §1

Botrytis cinerea [5] = experiment: Control of Botrytis cinerea disease in tobacco (Bc-Nt); conditions: 1 μM spraying every 24 hours for one week, water control 6.7
In short: as §1

Botrytis cinerea [6] = experiment: Control of Botrytis cinerea disease in tomato (Bc-SI); conditions: 1 μM spraying every 24 hours for one week, water control 7.4
In short: as §1

Radopholus similis = experiment: Nematode control, nodules per plant: Radopholus similis; conditions: 1 μM foliar application every 5 days, evaluation 35 days after, control 45
In short: (§2)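 Foliar application at 1 μM; spraying every 5 days; n = 10 plants/treatment; nodules/plant scored day 35.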

Meloidogyne incognita = experiment: Nematode control, nodules per plant: Meloidogyne incognita; conditions: 1 μM foliar application every 5 days, evaluation 35 days after, control 34
In short: as §2

Pratylenchus coffeae = experiment: Nematode control, nodules per plant: Pratylenchus coffeae; conditions: 1 μM foliar application every 5 days, evaluation 35 days after, control 42
In short: as §2

| Compound | Titers of the bacterium ([1]; 0.001 μM) [copies per reaction] | Titers of the bacterium ([1]; 0.01 μM) [copies per reaction] | Titers of the bacterium ([1]; 1 μM) [copies per reaction] | Titers of the bacterium ([1]; 5 μM) [copies per reaction] | Titers of the bacterium ([1]; 10 μM) [copies per reaction] | Pp-Nt: percentage of mortality (Phytophthora parasitica) [%] | Rs-Nt: percentage of mortality (Rhizoctonia solani [2]) [%] | N-Nt: percentage of mortality (Nocardia sp) [%] | Rs-SI: percentage of mortality (Rhizoctonia solani [3]) [%] | As-SI: percentage of leaves with the disease symptoms (Alternaria solani) [%] | Bc-At: mean of the diameter of the lesion (Botrytis cinerea [4]) [mm] | Bc-Nt: mean of the diameter of the lesion (Botrytis cinerea [5]) [mm] | Bc-SI: mean of the diameter of the lesion (Botrytis cinerea [6]) [mm] | Rs: number of nodules per plant (Radopholus similis) | Mi: number of nodules per plant (Meloidogyne incognita) | Pc: number of nodules per plant (Pratylenchus coffeae) |
| --- | --- | --- | --- | --- | --- | --- | --- | --- | --- | --- | --- | --- | --- | --- | --- | --- |
| O=C(c1ccc(OC2CCN(CC(O)CO)CC2)cc1)N1CCC(c2ccccc2)C1 (stereo not drawn) [IVC, 3-(4-{4-[(3-phenylpyrrolidin-1-yl)carbonyl]phenoxy}piperidin-1-yl)propane-1,2-diol] | 123 | 4 | 0 | 23 | 3541 | 1 | 2 | 1 | 3 | 1 | 1.2 | 0.3 | 0.8 | 14 | 2 | 13 |
| O=C(CCc1cc2cc3ccoc3cc2oc1=O)NCC(O)CO (stereo not drawn) [IF, N-(2,3-dihydroxypropyl)-3-{2-oxo-2H-furo[3,2-g]chromen-3-yl}propanamide] | 985 | 0 | 0 | 98 | 6325 | 0 | 0 | 0 | 1 | 5 | 0.7 | 0.9 | 1.2 | 0 | 0 | 0 |
| CN1c2cc(C(=O)NC3CCCC3)ccc2OCC1CC(=O)NC(CO)CO (stereo not drawn) [VH, N-cyclopentyl-3-{[(1,3-dihydroxypropan-2-yl)carbamoyl]methyl}-4-methyl-3,4-dihydro-2H-1,4-benzoxazine-6-carboxamide] | 658 | 4 | 0 | 68 | 6541 | 2 | 3 | 1 | 2 | 2 | 0.7 | 0.9 | 1.2 | 2 | 3 | 1 |
| Cc1c2c(oc(=O)c1CC(=O)NCC(O)CO)C=CC1C(c3ccccc3)=COC21 (stereo not drawn) [III, N-(2,3-dihydroxypropyl)-2-{13-methyl-11-oxo-5-phenyl-3,10-dioxatricyclo[7.4.0.0^{2,6}]trideca-1(9),4,7,12-tetraen-12-yl}acetamide] | 456 | 0 | 1 | 56 | 3654 | 2 | 3 | 1 | 2 | 2 | 2.4 | 1.5 | 0.8 | 2 | 3 | 1 |
| O=C(c1ccc(OC2CCN(CC(O)CO)CC2)cc1)N1CCC(n2cccc2)C1 (stereo not drawn) [IVK, 3-[4-(4-{[3-(1H-pyrrol-1-yl)pyrrolidin-1-yl]carbonyl}phenoxy)piperidin-1-yl]propane-1,2-diol] | 578 | 5 | 4 | 78 | 8542 | 1 | 2 | 1 | 3 | 1 | 0.5 | 0.9 | 0.8 | 14 | 2 | 14 |
| O=C(c1cnc(N2CCN(c3ccccc3)CC2)nc1)N1CC2CC(O)C(O)CC2C1 (stereo not drawn) [IIIC, 2-{[2-(4-phenylpiperazin-1-yl)pyrimidin-5-yl]carbonyl}-octahydro-1H-isoindole-5,6-diol] | 587 | 0 | 0 | 87 | 3654 | 1 | 4 | 2 | 2 | 3 | 1.2 | 0.3 | 0.8 | 14 | 4 | 2 |
